IC50 data for 25 molecules are collected here from US9981950B2, “Triazoles as NR2B receptor inhibitors” (Janssen Pharmaceuticals, Inc., priority 2014, dated 2018).

As usually defined, the IC50 is the midpoint of a concentration-inhibition curve. Read a low IC50 as greater potency in that assay.

In assay [1] the target is T1, rat NR1/NR2B receptor (Rattus norvegicus (Rat), UniProt P35439+Q00960). As to the kind of experiment: RRNR2BB: inhibition of specific binding to the rat NR1/NR2B receptor. The note with it: [3H]-Ifenprodil binding, rat brain membranes, Hill-plot 2-parameter-model. The gist of the method:
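Washed membranes from male Wistar rat forebrain (whole brain minus cerebellum) in 5 mM Tris/1 mM EDTA pH 7.4 used in ifenprodil-site binding, 60 min at 4° C. Nonspecific binding defined with […] CP101.606; bound separated by filtration on PEI-soaked filters. IC50 from Hill plot, 2-parameter model.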

In the next assay the target is hERG-receptor (Homo sapiens (Human), UniProt Q12809). Put plainly: HERGBD: inhibition of specific 3H-Dofetilide binding to the hERG-receptor. The note with it: HEK cell membranes with human ERG, Hill-plot 2-parameter-model. The procedure, abridged: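 Membranes from HEK cells stably expressing human ERG incubated 90 min at RT with 1.5 nmol/l 3H-dofetilide in 20 mM HEPES/0.1 mM KCl pH 7.2, inhibitor in 1% DMSO. Nonspecific binding with […] dofetilide; bound ligand separated by filtration and scintillation counted.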
A general note: Block of hERG is tested as a sign of cardiac risk.

The target in assay [2] is T1, rat NR1/NR2B receptor. As to the kind of experiment: NR2B binding assay: inhibition of specific [3H]-Ifenprodil binding to the rat NR1/NR2B receptor. The note with it: rat brain membranes, Hill-plot 2-parameter-model. On the procedure:
Inhibition of Specific Binding to the Rat NR1/NR2B Receptor
Male Wistar rats (180 to 200 g) were killed by suffocation in a CO2 chamber for two minutes. Whole brains without cerebellum were removed and dissected on ice, placed into closed vials and stored at −70° C.
Membrane fractions were prepared and tested using standard techniques. At the time of the assay, 1 g of the brains was placed into 25 ml of 50 mM Tris/10 mM EDTA buffer, pH 7.1, (25 vol. per g of original tissue) and homogenized for 30 sec at 20000 rpm with an Ultraturrax T25 (Jahnke & Kunkel, IKA-Labortechnik, Staufen, Germany). The homogenate was centrifuged at 4° C. for 10 min at 48000 g (OPTIMA L-70, Beckman, Palo Alto, Calif. 94304, USA).
The supernatant was discarded and the pellet was homogenized on ice for 30 sec at 20000 rpm with an Ultraturrax and again centrifuged at 48000 g for 30 minutes at 4° C. The resulted pellet was resuspended in 25 ml of 50 mM Tris/10 mM EDTA buffer, homogenized for 30 sec with an Ultraturrax, aliquoted, frozen at −70° C. and stored until use.
After thawing on the day of the assay, a 5 ml membrane aliquot was centrifuged at 48000 g for 30 min at 4° C. The pellet was resuspended in 5 ml of 5 mM Tris/1 mM EDTA buffer, pH 7.4, homogenized for 30 sec at 20000 rpm with an Ultraturrax and centrifuged at 48000 g for 30 min at 4° C. This was repeated twice. The final pellet was homogenized in 5 ml of 5 mM Tris/l mM EDTA buffer at 4° C. with an Ultraturrax and used for the Ifenprodil-binding assay as described in the following.
Nonspecific binding was estimated in the presence of […] CP101.606. The samples were incubated for 60 min. at 4° C.
The incubation was terminated by filtration of the membrane preparations using Filtermat B (Pharmacia, Uppsala Sweden) and a Micro Cell Harvester (Skatron, Lier, Norway). The Filtermat B had been presoaked with 1% polyethylene imine and carefully washed with 50 mM Tris/HCl-buffer pH 7.7 after the filtration to separate free and bound radioactivity.
The optimal amount of membrane preparation in the assay had been determined and optimized for each membrane preparation separately before the test.
For pipetting of the incubation mixture we routinely used the robot Biomek2000 (Fa. Beckman).
For determination of IC50 values the Hill-plot, 2-parameter-model was used.

T1 sequence (Q00960 27-1482, other chains not shown): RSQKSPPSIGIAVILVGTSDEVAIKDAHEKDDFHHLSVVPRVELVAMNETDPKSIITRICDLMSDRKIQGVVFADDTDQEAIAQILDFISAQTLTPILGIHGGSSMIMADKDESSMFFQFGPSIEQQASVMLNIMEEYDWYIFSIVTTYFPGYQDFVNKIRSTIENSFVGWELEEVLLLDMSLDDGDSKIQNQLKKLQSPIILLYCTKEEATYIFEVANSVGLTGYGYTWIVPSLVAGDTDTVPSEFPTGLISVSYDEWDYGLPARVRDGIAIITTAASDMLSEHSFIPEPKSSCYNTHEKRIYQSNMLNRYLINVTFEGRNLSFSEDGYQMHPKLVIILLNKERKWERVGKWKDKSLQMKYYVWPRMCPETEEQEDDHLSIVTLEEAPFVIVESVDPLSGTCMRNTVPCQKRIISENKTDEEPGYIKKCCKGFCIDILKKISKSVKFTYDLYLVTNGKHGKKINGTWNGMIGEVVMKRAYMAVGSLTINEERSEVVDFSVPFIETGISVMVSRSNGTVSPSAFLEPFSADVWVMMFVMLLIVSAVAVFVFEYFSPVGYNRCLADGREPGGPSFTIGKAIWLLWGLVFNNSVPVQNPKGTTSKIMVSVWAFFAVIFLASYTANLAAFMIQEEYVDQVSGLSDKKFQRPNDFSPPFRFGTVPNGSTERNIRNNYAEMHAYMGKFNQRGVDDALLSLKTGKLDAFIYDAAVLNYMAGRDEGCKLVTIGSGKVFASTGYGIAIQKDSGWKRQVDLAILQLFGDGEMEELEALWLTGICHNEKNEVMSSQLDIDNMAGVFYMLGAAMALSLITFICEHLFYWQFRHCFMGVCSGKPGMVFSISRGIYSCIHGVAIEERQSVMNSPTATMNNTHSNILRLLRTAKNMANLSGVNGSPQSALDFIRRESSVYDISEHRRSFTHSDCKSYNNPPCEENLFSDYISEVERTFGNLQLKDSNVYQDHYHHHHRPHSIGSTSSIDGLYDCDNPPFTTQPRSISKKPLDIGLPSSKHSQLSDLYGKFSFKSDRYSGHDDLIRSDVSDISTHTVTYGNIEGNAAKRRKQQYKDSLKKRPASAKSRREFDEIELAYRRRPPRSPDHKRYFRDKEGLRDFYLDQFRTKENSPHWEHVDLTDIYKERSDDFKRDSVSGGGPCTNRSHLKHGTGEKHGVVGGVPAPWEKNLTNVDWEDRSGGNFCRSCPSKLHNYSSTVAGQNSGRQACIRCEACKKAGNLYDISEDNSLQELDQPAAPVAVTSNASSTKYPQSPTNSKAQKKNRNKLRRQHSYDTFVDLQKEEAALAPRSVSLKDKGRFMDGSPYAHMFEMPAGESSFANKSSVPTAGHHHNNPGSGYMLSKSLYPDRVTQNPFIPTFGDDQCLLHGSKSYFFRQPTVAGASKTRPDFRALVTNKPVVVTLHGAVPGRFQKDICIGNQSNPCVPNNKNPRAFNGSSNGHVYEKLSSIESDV
Chain of hERG-receptor (Q12809 whole entry): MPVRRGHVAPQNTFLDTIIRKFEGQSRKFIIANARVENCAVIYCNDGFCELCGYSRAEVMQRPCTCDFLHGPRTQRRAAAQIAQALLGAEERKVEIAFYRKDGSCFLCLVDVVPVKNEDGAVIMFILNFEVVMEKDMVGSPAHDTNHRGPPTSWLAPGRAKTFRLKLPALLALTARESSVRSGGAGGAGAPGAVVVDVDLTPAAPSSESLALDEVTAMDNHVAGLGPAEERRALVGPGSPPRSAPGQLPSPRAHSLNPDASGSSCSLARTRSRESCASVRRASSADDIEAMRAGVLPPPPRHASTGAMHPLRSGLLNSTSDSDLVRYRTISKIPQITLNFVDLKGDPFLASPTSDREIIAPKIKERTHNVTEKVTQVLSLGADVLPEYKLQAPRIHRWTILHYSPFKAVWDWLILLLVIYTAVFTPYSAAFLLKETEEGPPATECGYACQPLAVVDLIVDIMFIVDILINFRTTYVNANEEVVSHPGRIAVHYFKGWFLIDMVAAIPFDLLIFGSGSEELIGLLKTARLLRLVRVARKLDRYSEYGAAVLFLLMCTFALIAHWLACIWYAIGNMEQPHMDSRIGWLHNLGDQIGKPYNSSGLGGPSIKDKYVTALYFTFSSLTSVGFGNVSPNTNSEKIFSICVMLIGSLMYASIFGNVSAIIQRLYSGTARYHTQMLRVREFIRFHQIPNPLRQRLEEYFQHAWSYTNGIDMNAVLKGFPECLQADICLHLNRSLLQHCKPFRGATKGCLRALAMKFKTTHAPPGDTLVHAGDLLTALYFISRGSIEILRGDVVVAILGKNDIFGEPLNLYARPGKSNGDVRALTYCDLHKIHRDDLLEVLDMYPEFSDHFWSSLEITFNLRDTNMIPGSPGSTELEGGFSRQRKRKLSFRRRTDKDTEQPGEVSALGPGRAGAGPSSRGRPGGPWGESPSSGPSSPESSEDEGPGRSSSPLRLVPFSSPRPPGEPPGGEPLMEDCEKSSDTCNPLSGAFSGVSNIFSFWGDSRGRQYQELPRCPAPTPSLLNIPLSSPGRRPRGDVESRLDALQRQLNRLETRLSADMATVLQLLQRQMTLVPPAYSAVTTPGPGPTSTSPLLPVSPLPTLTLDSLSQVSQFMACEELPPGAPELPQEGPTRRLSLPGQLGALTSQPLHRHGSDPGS

On to `FC(F)(F)Oc1cccc(-n2cc(Cn3ccnc3C3CC3)nn2)c1` [Example 67, 4-(2-Cyclopropyl-imidazol-1-ylmethyl)-1-(3-trifluoromethoxy-phenyl)-1H-[1,2,3]triazole], for which the results for the IC50 at rat NR1/NR2B receptor [1], on hERG-receptor and on rat NR1/NR2B receptor [2] were 34.5 nM, 2550 nM and 34.5 nM, respectively.

As for `Cc1nccn1Cc1cn(-c2ccc(Cl)c(F)c2)nn1` [Example 50, 1-(4-Chloro-3-fluoro-phenyl)-4-(2-methyl-imidazol-1-ylmethyl)-1H-[1,2,3]triazole], the IC50 on rat NR1/NR2B receptor [1] came out at 21.2 nM; at hERG-receptor, 3390 nM; on rat NR1/NR2B receptor [2], 21.2 nM.

In the case of `OCCc1nccn1Cn1cc(-c2ccc(S(F)(F)(F)(F)F)cc2)nn1` [Example 118, 2-(1-((1-(4-(pentafluoro-l6-sulfanyl)phenyl)-1H-1,2,3-triazol-4-yl)methyl)-1H-imidazol-2-yl)ethan-1-ol], the IC50 at rat NR1/NR2B receptor [1] worked out at 263 nM; at hERG-receptor, 12300 nM; on rat NR1/NR2B receptor [2], 263 nM.

On to `CCc1nccn1Cc1cn(-c2ccc(F)c(C(F)F)c2)nn1` [Example 83, 1-(3-Difluoromethyl-4-fluoro-phenyl)-4-(2-ethyl-imidazol-1-ylmethyl)-1H-[1,2,3]triazole], for which the IC50 at rat NR1/NR2B receptor [1] worked out at 4.11 nM; on hERG-receptor it was 16700 nM; on rat NR1/NR2B receptor [2] it was 4.11 nM.

As for `Cc1nccn1Cc1cn(-c2cccc(OC(F)(F)F)c2)nn1` [Example 57, 4-(2-Methyl-imidazol-1-ylmethyl)-1-(3-trifluoromethoxy-phenyl)-1H-[1,2,3]triazole], the IC50 at rat NR1/NR2B receptor [1] is 7.21 nM; on hERG-receptor, 8590 nM; on rat NR1/NR2B receptor [2] it was 7.21 nM.

`CCc1nccn1Cc1cn(-c2ccc(Cl)c(C)c2)nn1` [Example 70, 1-(4-Chloro-3-methyl-phenyl)-4-(2-ethyl-imidazol-1-ylmethyl)-1H-[1,2,3]triazole]: the IC50 at rat NR1/NR2B receptor [1] stood at 1.84 nM; at hERG-receptor it was 3920 nM; at rat NR1/NR2B receptor [2], 1.84 nM.

On to `Fc1ccc(-n2cc(Cn3ccnc3C3CC3)nn2)cc1Cl` [Example 44], for which the figures for the IC50 at rat NR1/NR2B receptor [1], at hERG-receptor and on rat NR1/NR2B receptor [2] were 28.3 nM, 3570 nM and 28.3 nM, respectively.

Consider `Cc1ccc(-n2cc(Cn3ccnc3C)nn2)cc1F` [Example 53, 1-(3-Fluoro-4-methyl-phenyl)-4-(2-methyl-imidazol-1-ylmethyl)-1H-[1,2,3]triazole], for which the IC50 was determined as 26.5 nM on rat NR1/NR2B receptor [1], 6410 nM at hERG-receptor and 26.5 nM on rat NR1/NR2B receptor [2].

In the case of `CC(C)(C)c1nccn1Cc1cn(-c2ccc(F)c(C(F)F)c2)nn1` [Example 87, 1-(3-Difluoromethyl-4-fluoro-phenyl)-4-(2-tert.butyl-imidazol-1-ylmethyl)-1H-[1,2,3]triazole], the IC50 on rat NR1/NR2B receptor [1] worked out at 131 nM; at hERG-receptor, 7520 nM; at rat NR1/NR2B receptor [2], 131 nM.

`CCCCc1nccn1Cc1cn(-c2ccc(Cl)cc2)nn1` [Example 27, 4-(2-Butyl-imidazol-1-ylmethyl)-1-(4-chloro-phenyl)-1H-[1,2,3]triazole]: the results for the IC50 on rat NR1/NR2B receptor [1], on hERG-receptor and at rat NR1/NR2B receptor [2] were 38.9 nM, 570 nM and 38.9 nM, respectively.

On to `CCc1nccn1Cc1cn(-c2ccc(Cl)c(C(F)F)c2)nn1` [Example 91, 1-(4-Chloro-3-difluoromethyl-phenyl)-4-(2-ethyl-imidazol-1-ylmethyl)-1H-[1,2,3]triazole], for which the IC50 at rat NR1/NR2B receptor [1] is 2.43 nM; on hERG-receptor, 7190 nM; at rat NR1/NR2B receptor [2], 2.43 nM.

Take `Cc1ncnn1Cc1cn(-c2ccc(Cl)cc2)nn1` [Example 8, 1-(4-Chloro-phenyl)-4-(5-methyl-[1,2,4]triazol-1-ylmethyl)-1H-[1,2,3]triazole]: the IC50 on rat NR1/NR2B receptor [1] was 14300 nM; on hERG-receptor, 48900 nM; on rat NR1/NR2B receptor [2], 14300 nM.

Turning to `Clc1ccc(-n2cc(Cn3ccnc3C3CC3)nn2)cc1Cl` [Example 36, 4-(2-Cyclopropyl-imidazol-1-ylmethyl)-1-(3,4-dichloro-phenyl)-1H-[1,2,3]triazole], the results for the IC50 at rat NR1/NR2B receptor [1], at hERG-receptor and on rat NR1/NR2B receptor [2] were 17.9 nM, 1160 nM and 17.9 nM, respectively.

`Cc1cc(-n2cc(Cn3ccnc3C)nn2)ccc1F` [Example 54, 1-(4-Fluoro-3-methyl-phenyl)-4-(2-methyl-imidazol-1-ylmethyl)-1H-[1,2,3]triazole]: the IC50 stood at 5.32 nM at rat NR1/NR2B receptor [1], 6210 nM at hERG-receptor and 5.32 nM at rat NR1/NR2B receptor [2].

Turning to `OCc1nccn1Cc1cn(-c2ccc(Cl)cc2)nn1` [Example 28, 4-(2-Hydroxymethyl-imidazol-1-ylmethyl)-1-(4-chloro-phenyl)-1H-[1,2,3]triazole], the values for the IC50 on rat NR1/NR2B receptor [1], at hERG-receptor and at rat NR1/NR2B receptor [2] were 573 nM, 11200 nM and 573 nM, respectively.

For the molecule `Cc1cc(-n2cc(Cn3ccnc3C(C)C)nn2)ccc1Cl` [Example 71, 1-(4-Chloro-3-methyl-phenyl)-4-(2-isopropyl-imidazol-1-ylmethyl)-1H-[1,2,3]triazole], the values for the IC50 on rat NR1/NR2B receptor [1], at hERG-receptor and on rat NR1/NR2B receptor [2] were 4.47 nM, 10000 nM and 4.47 nM, respectively.

In the case of `Cc1nccn1Cc1cn(-c2ccc(Cl)cc2)nn1` [Example 24, 1-(4-Chloro-phenyl)-4-(2-methyl-imidazol-1-ylmethyl)-1H-[1,2,3]triazole], the IC50 amounted to 38.4 nM at rat NR1/NR2B receptor [1], 5640 nM on hERG-receptor and 38.4 nM at rat NR1/NR2B receptor [2].

As for `Cc1nccn1Cc1cn(-c2ccc(F)c(OC(F)F)c2)nn1` [Example 100, 1-(3-Difluoromethoxy-4-fluoro-phenyl)-4-(2-methyl-imidazol-1-ylmethyl)-1H-[1,2,3]triazole], the figures for the IC50 on rat NR1/NR2B receptor [1], at hERG-receptor and on rat NR1/NR2B receptor [2] were 1.9 nM, 12800 nM and 1.9 nM, respectively.

For `CS(=O)(=O)c1cccc(-n2cc(Cn3ccnc3CCF)nn2)c1` [Example 80, 4-[2-(2-Fluoro-ethyl)-imidazol-1-ylmethyl]-1-(3-methanesulfonyl-phenyl)-1H-[1,2,3]triazole], the IC50 is 2680 nM on rat NR1/NR2B receptor [1], over 100000 nM on hERG-receptor and 2680 nM at rat NR1/NR2B receptor [2].

Take `FCCc1nccn1Cc1cn(-c2ccc(Cl)c(Cl)c2)nn1` [Example 41, 1-(3,4-Dichloro-phenyl)-4-[2-(2-fluoro-ethyl)-imidazol-1-ylmethyl]-1H-[1,2,3]triazole]: the IC50 came to 26.2 nM at rat NR1/NR2B receptor [1], 13700 nM at hERG-receptor and 26.2 nM at rat NR1/NR2B receptor [2].

In the case of `COc1cc(F)ccc1-n1cc(Cn2ccnc2C)nn1` [Example 52, 1-(4-Fluoro-2-methoxy-phenyl)-4-(2-methyl-imidazol-1-ylmethyl)-1H-[1,2,3]triazole], the IC50 on rat NR1/NR2B receptor [1] worked out at 1180 nM; on hERG-receptor it was 41700 nM; at rat NR1/NR2B receptor [2] it was 1180 nM.

As to `Cc1nc2ccccc2n1Cc1cn(-c2ccc(Cl)c(Cl)c2)nn1` [Example 117, 1-[[1-(3,4-dichlorophenyl)triazol-4-yl]methyl]-2-methyl-benzimidazole], the IC50 on rat NR1/NR2B receptor [1] stood at 141 nM; on hERG-receptor, 3090 nM; on rat NR1/NR2B receptor [2] it was 141 nM.

For `OCCc1nccn1Cc1cn(-c2ccc(Cl)c(Cl)c2)nn1` [Example 40, 4-[2-(2-Hydroxyethyl)-imidazol-1-ylmethyl]-1-(3,4-dichloro-phenyl)-1H-[1,2,3]triazole], the IC50 at rat NR1/NR2B receptor [1] was determined as 17.2 nM; on hERG-receptor, 14700 nM; at rat NR1/NR2B receptor [2], 17.2 nM.

Take `Cc1nccn1Cc1cn(-c2cccc(S(C)(=O)=O)c2)nn1` [Example 77, 1-(3-Methanesulfonyl-phenyl)-4-(2-methyl-imidazol-1-ylmethyl)-1H-[1,2,3]triazole]: the IC50 on rat NR1/NR2B receptor [1] was 615 nM; at hERG-receptor, 150000 nM; at rat NR1/NR2B receptor [2], 615 nM.

In the case of `Cc1nccn1Cc1cn(-c2ccc(F)c(Cl)c2)nn1` [Example 51, 1-(3-Chloro-4-fluoro-phenyl)-4-(2-methyl-imidazol-1-ylmethyl)-1H-[1,2,3]triazole], the figures for the IC50 on rat NR1/NR2B receptor [1], on hERG-receptor and on rat NR1/NR2B receptor [2] were 7.01 nM, 4970 nM and 7.01 nM, respectively.
